Source: PubChem BioAssay (NCI)
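All cell lines were grown in 96-well plates and treated with compound for 48 hours. Definition used: TGI = concentration required for complete inhibition of growth.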 Where a SMILES comes first, the peptide text is derived from it. [ ]: non-standard residue; d: D form. The star is where a group is joined. mTyr = N[CH](Cc1cccc(O)c1)C(=O)O; Cbz = O=C(OCc1ccccc1)*; OBn = c1ccc(CO*)cc1

What was measured:
Experiment in all cases: growth of human tumour cells (NCI), 48 h
BT-549 breast = system: BT-549 breast
CAKI-1 renal = system: CAKI-1 renal
MCF7 breast = system: MCF7 breast
MDA-N = system: MDA-N
OVCAR-3 ovarian = system: OVCAR-3 ovarian
SF-295 CNS = system: SF-295 CNS
SK-MEL-28 melanoma = system: SK-MEL-28 melanoma
HCC-2998 colon = system: HCC-2998 colon

| SMILES | TGI (BT-549 breast) | TGI (CAKI-1 renal) | TGI (MCF7 breast) | TGI (MDA-N) | TGI (OVCAR-3 ovarian) | TGI (SF-295 CNS) | TGI (SK-MEL-28 melanoma) | TGI (HCC-2998 colon) |
| --- | --- | --- | --- | --- | --- | --- | --- | --- |
| Brc1ccc(-c2cn3ccncc3n2)cc1 | > 100 µM | > 100 µM | > 100 µM | > 100 µM | > 100 µM | > 100 µM | > 100 µM |  |
| CC(C)C1=CC23CCC4C(C)(C(=O)O)CCCC4(C)C2CC1C1C(=O)N(c2ccc(C(=O)O)cc2)C(=O)C13 (stereo not drawn) | > 100 µM | > 100 µM | > 100 µM | > 100 µM | > 100 µM | > 100 µM | > 100 µM | > 100 µM |
| COc1ccc(C(=O)c2[nH]c(Nc3ccc(Cl)cc3)c(C(=S)Nc3ccccc3)c2N)cc1 | > 100 µM | > 100 µM | > 100 µM | > 100 µM | > 100 µM | > 100 µM | 87 µM | > 100 µM |
| CCN(c1cccc(NC(=S)Nc2ccccc2N(CC)c2cc(-c3ccccc3)no2)c1)c1cc(-c2ccccc2)no1 | > 100 µM | > 100 µM | > 100 µM | > 100 µM | > 100 µM | > 100 µM | > 100 µM | > 100 µM |
| FC(F)(F)c1ccc2nc(Sc3ccccn3)cnc2c1 | 68.1 µM | > 100 µM | > 100 µM | > 100 µM |  | > 100 µM | > 100 µM | 38.3 µM |
| COc1ccc(/C=C2\CN(C)C/C(=C\c3ccc(OC)c(OC)c3OC)C2=O)c(OC)c1OC |  | 1.55 µM |  | 1.25 µM | 0.335 µM | 1.01 µM | 0.393 µM | 0.335 µM |
| COc1nc(N)c(N=CC(OC(C)=O)C(OC(C)=O)C(COC(C)=O)OC(C)=O)c(=O)n1C (stereo not drawn) | > 100 µM | > 100 µM | > 100 µM | > 100 µM | > 100 µM | > 100 µM | > 100 µM | > 100 µM |
| CC(C)(C)c1cc(C2COC(c3cc(C(C)(C)C)c(O)c(C(C)(C)C)c3)CO2)cc(C(C)(C)C)c1O (stereo not drawn) | > 100 µM | > 100 µM | > 100 µM | > 100 µM | > 100 µM | > 100 µM | > 100 µM |  |
| O=C(Nc1cccc(F)c1)c1cc2ccc(O)cc2oc1=Nc1ccccc1F | 8.61 µM | 15 µM | 25.7 µM | 17.7 µM | 14.7 µM | 23.6 µM | 18 µM | 28.7 µM |
| CC(C)CN=C(N)N=C(N)N | > 100 µM |  | > 100 µM | > 100 µM | > 100 µM | > 100 µM | > 100 µM | > 100 µM |
| COc1cc(C(c2ccc3c(c2)OCO3)N2C(=O)CCC2C(=O)O)cc(OC)c1OC (stereo not drawn) | > 100 µM | > 100 µM | > 100 µM | > 100 µM | > 100 µM | > 100 µM | > 100 µM | > 100 µM |
| CCOC(=O)[C@H](Cc1ccc(O)cc1)N=C1[C@H]2CCC[C@]1(O)[C@@](C)([N+](=O)[O-])C2 | > 100 µM | > 100 µM | > 100 µM | > 100 µM | > 100 µM | > 100 µM | > 100 µM | > 100 µM |
| C=CCOC(=O)C1C2OC3(C(C(=O)OC)=C2C(=O)OC)c2ccccc2CCC13 (stereo not drawn) | > 10 µM | > 10 µM | > 10 µM | > 10 µM | > 10 µM | > 10 µM | > 10 µM | > 10 µM |
| COc1ccc2c(c1)CCN1CCc3cc(OC)c(OC)cc3CC21 (stereo not drawn) | 55.6 µM | > 100 µM | > 100 µM |  |  | > 100 µM | > 100 µM | > 100 µM |
| Cc1nc(-c2ccc(N=Cc3ccc(N(CCOS(C)(=O)=O)CCOS(C)(=O)=O)cc3C)cc2)cs1 | > 100 µM |  | 53.6 µM | > 100 µM | > 100 µM | > 100 µM | > 100 µM | > 100 µM |
| COC(=O)C(Cc1cccc(O)c1)NC(=O)C(CC(=O)OCc1ccccc1)NC(=O)OCc1ccccc1 (stereo not drawn) (Cbz-Asp(OBn)-[mTyr]-OMe; configuration not given here) | > 100 µM |  | > 100 µM | > 100 µM |  |  | > 100 µM | > 100 µM |
| C[C@H]1C=C2[C@@H]3CC(C)(C(=O)O)CC[C@]3(C)CC[C@]2(C)[C@]2(C)CC[C@H]3C(C)(C)[C@@H](OC(=O)c4cccc5c(=O)c6ccccc6[nH]c45)CC[C@]3(C)[C@@H]12 (stereo partly drawn) | > 100 µM | > 100 µM | > 100 µM | > 100 µM | > 100 µM | > 100 µM | > 100 µM | > 100 µM |
| CN(C)CCCN1c2ccccc2CCc2ccc([N+](=O)[O-])cc21 | 73.7 µM | > 100 µM | 34.1 µM | 40.9 µM | > 100 µM | 34.3 µM | 77.9 µM | 28.5 µM |
| CNc1ccc(N)cc1C(=O)N1CCC[C@H]1CO | > 100 µM | > 100 µM | > 100 µM | > 100 µM |  | > 100 µM | > 100 µM |  |
| Cc1ccc(/C(O)=C/C(=O)C(=O)NN=C(c2ccccc2)c2ccccc2)cc1 | > 100 µM | > 100 µM | > 100 µM | > 100 µM | > 100 µM | > 100 µM | > 100 µM | > 100 µM |
| CCOc1cc(NC(C)=O)ccc1C(=O)NN1C(=O)C(Cl)C1c1ccco1 (stereo not drawn) | 30.4 µM | 30.9 µM | 26.8 µM | 36.1 µM | 32 µM | 30.5 µM | 63.5 µM | 29.5 µM |
| Cc1ccc(N=Nc2c(O)c(C(=O)Nc3ccccc3)cc3ccccc23)c([N+](=O)[O-])c1 | > 100 µM | > 100 µM |  | > 100 µM | > 100 µM | > 100 µM | > 100 µM |  |
| CC(C)(CC(O)C#N)/[N+]([O-])=[N+](\[O-])C(C)(C)CC(O)C#N (stereo not drawn) | 78.8 µM | 30.4 µM | 65.5 µM | 59.5 µM | 69.2 µM | > 100 µM | > 100 µM | 34.2 µM |
| Cc1ccc(/C=C2\CCCC(CN3CCCCC3)C2=O)cc1 (stereo not drawn) | 4.84 µM | 3.19 µM | 2.1 µM | 7.78 µM | 3.39 µM | 30.9 µM | 3.22 µM | 28.9 µM |
| COc1cccc(N2C(=O)C3c4[nH]c5ccc(C)cc5c4C4CCC(C(C)(C)C)CC4C3C2=O)c1 (stereo not drawn) |  | > 10 µM | > 10 µM | > 10 µM | > 10 µM | > 10 µM | > 10 µM | > 10 µM |
